Tests used:
[1] = test system: neuronal cells infected with LV-α-synuclein; test: Calcein assay of membrane integrity (FLIPR); assay type: cell-based; conditions: for Percent reversal of α-Syn mediated disruption of cell integrity (0.01 μM test compound): calcein assay
Description: (§1) Next, to ascertain the effects on neuronal activity, cells were infected with LV-α-synuclein for 24 h, treated with Example 2 at 0, 0.01, 0.1 and 1 μM for 24 h in serum free media, loaded with Fluo-4 or calcein, and analyzed by FLIPR assay to determine Ca^2+ and calcein levels. […] Finally, to examine the effects Example 2 on neuronal survival, an MTT cell viability assay was performed. […] All cell free and cell based assays were repeated at least 3 times and experiments were performed blinded to sample identity.

[2] = test system: neuronal cells infected with LV-α-synuclein; test: Ca2+ levels by FLIPR assay (Fluo-4); assay type: cell-based; conditions: 0, 0.01, 0.1 and 1 μM for 24 h in serum free media, Fluo-4 (FIG. 3B)
Description: as §1

Recombinant α-synuclein = Recombinant α-synuclein (Homo sapiens, UniProt P37840); test: Cell-free α-synuclein aggregation assay (SDS-PAGE, immunoblot); assay type: biochemical; conditions: 10 μM α-synuclein, 37° C. 16 h then 56° C. 6 h, immunoblot (FIG. 1)
Description: Recombinant α-synuclein (10 μM) are incubated at 37° C. for 16 h and then at 56° C. for 6 h with test compound. […] After incubation, the mixture is run on a SDS-PAGE gel, followed by immunoblot testing with α-synuclein antibodies.

[3] = molecular target: T1, α-synuclein (wild type) expressed by lentivirus in a neuronal cell line (Homo sapiens, UniProt P37840); test: Cell-based α-synuclein accumulation by confocal microscopy; conditions: test compound 0, 0.1, 1 and 10 μM for 24 h (FIG. 2)
T1 construct: expressed in transfected cells

neuronal cells = test: MTT cell viability assay; assay type: cell-based
Description: as §1

[4] = test system: Neuronal cells expressing high levels of α-synuclein; test: Neurite outgrowth (Tubulin III antibody); assay type: cell-based; conditions: 0.1 and 1.0 μM (FIG. 3A)
[5] = molecular target: T1, α-synuclein (wild type) expressed by lentivirus in a neuronal cell line; test: Cell-based α-synuclein aggregation by immunoblot; conditions: soluble and insoluble fractions; test compound 0, 0.1, 1 and 10 μM for 24 h

Structure (SMILES): CCc1cc(NC(=O)NCCc2cnc[nH]2)ccc1Cc1c[nH]c2ccccc12 [Example 6, 1-(2-(1H-imidazol-5-yl)ethyl)-3-(4-((1H-indol-3-yl)methyl)-3-ethylphenyl)urea]
- Percent reversal of α-Syn mediated disruption of cell integrity (0.01 μM test compound) [1]: 37.5%

Structure (SMILES): CCCCc1cc(OCc2c[nH]c3ccccc23)cc(OC(=O)NCCN2CCN(C)CC2)c1 [Example 1]
- Percent reversal of α-Syn mediated disruption of cell integrity (0.01 μM test compound) [1]: 26.8%

Structure (SMILES): CCCCc1cc(NC(=O)NCCN2CCN(C)CC2)cc(O)c1Cc1c[nH]c2ccccc12 [Example 2, 1-(4-((1H-Indol-3-yl)methyl)-3-butyl-5-hydroxyphenyl)-3-(2-(4-methylpiperazin-1-yl)ethyl)urea]
- effect on calcein retention in the cytoplasm ([1]; 0, 0.01, 0.1 and 1 μM for 24 h in serum free media (FIG. 3C)): reversed the effect of α-synuclein on levels of calcein
- Percent reversal of α-Syn mediated disruption of cell integrity (0.01 μM test compound) [1]: 34.1%
- effect on Ca2+ levels [2]: restored concentrations of Ca^2+ to those in cells not infected with LV-α-synuclein
- inhibition of aggregation of α-synuclein into oligomers (Recombinant α-synuclein): capable of inhibiting the aggregation of α-synuclein into oligomers in a concentration-dependent manner
- reduction in the level of aggregates in the neuronal cell bodies and neurites (confocal microscopy) [3]: 60-65%
- toxicity in MTT cell viability assay (neuronal cells; at 10 μM (FIG. 3D)): mild toxicity
- toxic effects in MTT cell viability assay (neuronal cells; doses ranging from 0.1-10 μM (FIG. 3D)): no toxic effects
- effect on neurite extension and cellular morphology [4]: ameliorated the deleterious effects on neurite extension and improved cellular morphology
- reduction in the levels of aggregates in the various fractions (immunoblot) [5]: 50-60%

Structure (SMILES): CCc1cc(NC(=O)NCCN)ccc1Cc1c[nH]c2ccccc12 [Example 4, 1-(4-((1H-indol-3-yl)methyl)-3-ethylphenyl)-3-(2-aminoethyl)urea]
- Percent reversal of α-Syn mediated disruption of cell integrity (0.01 μM test compound) [1]: 25.9%

Structure (SMILES): CCc1cc(NC(=O)NCCN2CCN(C)CC2)ccc1Cc1c[nH]c2ccccc12 [Example 3, 1-(4-((1H-indol-3-yl)methyl)-3-ethylphenyl)-3-(2-(4-methylpiperazin-1-yl)ethyl)urea]
- Percent reversal of α-Syn mediated disruption of cell integrity (0.01 μM test compound) [1]: 18.9%

Structure (SMILES): CCc1cc(NC(=O)NCCN2CCNCC2)ccc1Cc1c[nH]c2ccccc12 [Example 5, 1-(4-((1H-Indol-3-yl)methyl)-3-ethylphenyl)-3-(2-(piperazin-1-yl)ethyl)urea]
- Percent reversal of α-Syn mediated disruption of cell integrity (0.01 μM test compound) [1]: 89.5%
